Reference: PMC9115314 (Biochemistry and Biophysics Reports, 2022)

Each molecule was assayed against h2E2 humanized anti-cocaine mAb (assay: differential scanning fluorimetry). Conditions: read-out: Avg Kd (nM) ± Std. Dev. (fold increase vs unmodified h2E2 mAb).
Assay type: binding, Homo sapiens

| SMILES | Kd |
| --- | --- |
| CN1[C@H]2CC[C@@H]1[C@@H](C(=O)O)[C@@H](OC(=O)c1ccccc1)C2 [BE, benzoylecgonine] | 177 ± 14 nM |
| CCOC(=O)[C@H]1[C@@H](OC(=O)c2ccccc2)C[C@@H]2CC[C@H]1N2C [CE, cocaethylene] | 20.7 ± 4.1 nM |
| COC(=O)[C@H]1[C@@H](OC(=O)c2ccccc2)C[C@@H]2CC[C@H]1N2C [Coc, cocaine] | 53 ± 6.8 nM |
